Values after ≈ are worked out from the molar mass of the structure shown. Where two headings read alike, the source gives them in different places.
Assays:
Pseudomonas aeruginosa = assay: Minimum inhibitory concentration by two-fold serial dilution in Trypticase Soy Broth, Pseudomonas aeruginosa; format: cell-based
Description: (§1) A stock solution of the test compound was made in dimethyl sulfoxide at 13,000 ppm and then diluted 26-fold to give a starting concentration of 500 ppm. The antimicrobial activity was evaluated by a two-fold serial dilution of the starting concentration of 500 ppm, using Trypticase Soy Broth medium at pH 7.0. The minimum inhibitory concentration (MIC) of compounds 1-15 against the test organisms are shown in Table 2. |Pseudomonas aeruginosa | Psae The antimicrobial activity of these compounds was determined as described in Example 6 with only one change. The organism Saur was replaced by Rhodotorula rubra (Rrub). Rrub is a pink yeast.

Escherichia coli = assay: Minimum inhibitory concentration by two-fold serial dilution in Trypticase Soy Broth, Escherichia coli; format: cell-based
Description: as §1, with “|Escherichia coli Ecol” for “|Pseudomonas aeruginosa | Psae”

Aspergillus niger = assay: Minimum inhibitory concentration by two-fold serial dilution in Trypticase Soy Broth, Aspergillus niger; format: cell-based
Description: as §1, with “|Aspergillus niger Anig” for “|Pseudomonas aeruginosa | Psae”

Rhodotorula rubra = assay: Minimum inhibitory concentration by two-fold serial dilution in Trypticase Soy Broth, Rhodotorula rubra; format: cell-based; conditions: Table 3, comparative, as described in Example 6, read-out: Comparative Antimicrobial Activity (MIC), Rrub
Description: as §1, with “The” for “The minimum inhibitory concentration (MIC) of compounds 1-15 against the test organisms are shown in Table 2. |Pseudomonas aeruginosa | Psae The”

Staphlococcus aureus = assay: Minimum inhibitory concentration by two-fold serial dilution in Trypticase Soy Broth, Staphlococcus aureus; format: cell-based; conditions: Table 2, pH 7.0, read-out: Antimicrobial Activity (MIC), Saur
Description: A stock solution of the test compound was made in dimethyl sulfoxide at 13,000 ppm and then diluted 26-fold to give a starting concentration of 500 ppm. The antimicrobial activity was evaluated by a two-fold serial dilution of the starting concentration of 500 ppm, using Trypticase Soy Broth medium at pH 7.0. The minimum inhibitory concentration (MIC) of compounds 1-15 against the test organisms are shown in Table 2. |Staphlococcus aureus | Saur

[1] = in words; U.S. Pat. No. 3,957,808; cited from earlier work
[2] = Table 3, comparative, as described in Example 6, read-out: Comparative Antimicrobial Activity (MIC), Psae
[3] = Table 3, comparative, as described in Example 6, read-out: Comparative Antimicrobial Activity (MIC), Ecol
[4] = Table 3, comparative, as described in Example 6, read-out: Comparative Antimicrobial Activity (MIC), Anig
[5] = Table 2, Trypticase Soy Broth, pH 7.0, read-out: Antimicrobial Activity (MIC), Psae
[6] = Table 2, Trypticase Soy Broth, pH 7.0, read-out: Antimicrobial Activity (MIC), Ecol
[7] = Table 2, Trypticase Soy Broth, pH 7.0, read-out: Antimicrobial Activity (MIC), Anig

Row | Compound | MIC (Pseudomonas aeruginosa; [2]) [µg/mL] | MIC (Escherichia coli; [3]) [µg/mL] | MIC (Aspergillus niger; [4]) [µg/mL] | MIC (Rhodotorula rubra) [µg/mL] | MIC (Pseudomonas aeruginosa; [5]) [µg/mL] | MIC (Escherichia coli; [6]) [µg/mL] | MIC (Aspergillus niger; [7]) [µg/mL] | MIC (Staphlococcus aureus) [µg/mL] | microbicidal properties [1]
1 | C=C(COc1ccsn1)C(=O)OC [Compound 1, Methyl 2-(isothiazoloxy-3-yl-methyl)acrylate] | 32 (≈ 161 µM) | 32 (≈ 161 µM) | 32 (≈ 161 µM) | 32 (≈ 161 µM) | 32 (≈ 161 µM) | 32 (≈ 161 µM) | 32 (≈ 161 µM) | – | –
2 | N#CC(=Cc1ccccc1)COc1cc(Cl)sn1 [Compound 4, 2-(5-Chloroisothiazoloxy-3-yl-methyl)-3-phenylacrylonitrile] | – | – | – | – | > 500 | > 500 | 500 (≈ 1810 µM) | 500 (≈ 1810 µM) | –
3 | C=C(COc1cc(Cl)sn1)[S+]([O-])c1ccccc1 (stereo not shown) [Compound 6, 3-(5-Chloroisothiazoloxy-3-yl-methyl)-2-phenylsulfinyl-1-propene] | – | – | – | – | 125 (≈ 417 µM) | 125 (≈ 417 µM) | 32 (≈ 107 µM) | 125 (≈ 417 µM) | –
4 | C=C(C(C)Oc1cc(Cl)sn1)S(=O)(=O)c1ccccc1 (stereo not shown) [Compound 7, 3-(5-Chloroisothiazoloxy-3-yl)-2-phenylsulfonyl-1-butene] | – | – | – | – | 32 (≈ 97 µM) | 32 (≈ 97 µM) | 32 (≈ 97 µM) | 32 (≈ 97 µM) | –
5 | CC(=O)C(=Cc1ccccc1)COc1nsc2c1CCC2 [Compound 11, α-(4,5-Trimethyleneisothiazoloxy-3-yl-methyl)benzalacetone] | – | – | – | – | > 500 | > 500 | 500 (≈ 1670 µM) | > 500 | –
6 | O=c1c(COc2cc(Cl)sn2)coc2ccccc12 [Compound 13, 3-(5-Chloroisothiazoloxy-3-yl-methyl)chromone] | – | – | – | – | 32 (≈ 109 µM) | 8 (≈ 27.2 µM) | 16 (≈ 54.5 µM) | 8 (≈ 27.2 µM) | –
7 | O=C1C=CC(=O)C(COc2cc(Cl)sn2)=C1 [Compound 14, 2-(5-Chloroisothiazoloxy-3-yl-methyl)-1,4-benzoquinone] | – | – | – | – | 64 (≈ 250 µM) | 16 (≈ 62.6 µM) | 8 (≈ 31.3 µM) | 64 (≈ 250 µM) | –
8 | O=C1C=CC(=O)C(COc2ccsn2)=C1 [Compound 15, 2-(Isothiazoloxy-3-yl-methyl)-1,4-benzoquinone] | – | – | – | – | 32 (≈ 145 µM) | 64 (≈ 289 µM) | 16 (≈ 72.3 µM) | 32 (≈ 145 µM) | –
9 | C=CCOc1ccsn1 [Compound A, reference compound] | > 500 | > 500 | 500 (≈ 3540 µM) | > 500 | – | – | – | – | useful microbicidal properties

Continued, in another order:

Row | MIC (Pseudomonas aeruginosa; [2]) [µg/mL] | MIC (Escherichia coli; [3]) [µg/mL] | MIC (Aspergillus niger; [4]) [µg/mL] | MIC (Rhodotorula rubra) [µg/mL] | MIC (Pseudomonas aeruginosa; [5]) [µg/mL] | MIC (Escherichia coli; [6]) [µg/mL] | MIC (Aspergillus niger; [7]) [µg/mL] | MIC (Staphlococcus aureus) [µg/mL] | Compound | microbicidal properties [1]
10 | 500 (≈ 2850 µM) | 250 (≈ 1420 µM) | 250 (≈ 1420 µM) | 500 (≈ 2850 µM) | – | – | – | – | C=CCOc1cc(Cl)sn1 [B, reference compound] | –
11 | 32 (≈ 137 µM) | < 4 | 4 (≈ 17.1 µM) | 8 (≈ 34.2 µM) | 32 (≈ 137 µM) | 2 (≈ 8.56 µM) | 1 (≈ 4.28 µM) | 4 (≈ 17.1 µM) | C=C(COc1cc(Cl)sn1)C(=O)OC [Compound 2, Methyl 2-(5-chloroisothiazoloxy-3-yl-methyl)acrylate] | –
12 | – | – | – | – | 125 (≈ 478 µM) | 8 (≈ 30.6 µM) | 4 (≈ 15.3 µM) | 8 (≈ 30.6 µM) | CC=C(COc1cc(Cl)sn1)C(=O)OCC [Compound 3, Ethyl 3-methyl-2-(5-chloroisothiazoloxy-3-yl-methyl)acrylate] | –
13 | – | – | – | – | 16 (≈ 54.5 µM) | 4 (≈ 13.6 µM) | 1 (≈ 3.4 µM) | 2 (≈ 6.81 µM) | CC(=O)C(=Cc1ccccc1)COc1cc(Cl)sn1 [Compound 5, α-(5-Chloroisothiazoloxy-3-yl-methyl)benzalacetone] | –
14 | – | – | – | – | 64 (≈ 194 µM) | 32 (≈ 97 µM) | 64 (≈ 194 µM) | 32 (≈ 97 µM) | CC=C(COc1cc(Cl)sn1)S(=O)(=O)c1ccccc1 [Compound 8, 1-(5-Chloroisothiazoloxy-3-yl-methyl)-2-phenylsulfonyl-2-butene] | –
15 | – | – | – | – | > 500 | > 500 | 32 (≈ 104 µM) | > 500 | C=C(COc1cc(Cl)sn1)C(=O)NCc1ccccc1 [Compound 9, N-Benzyl 2-(5-chloroisothiazoloxy-3-yl-methyl)acrylamide] | –
16 | – | – | – | – | > 500 | 125 (≈ 569 µM) | > 500 | 64 (≈ 291 µM) | C=C(COc1cc(Cl)sn1)C(=O)O [Compound 10, 2-(5-Chloroisothiazoloxy-3-yl-methyl)acrylic acid] | –
17 | – | – | – | – | 500 (≈ 1920 µM) | 500 (≈ 1920 µM) | 64 (≈ 245 µM) | > 500 | C=C(COc1cc(Cl)sn1)C(=O)NC(C)C [Compound 12, N-Isopropyl 2-(5-chloroisothiazoloxy-3-yl-methyl)acrylamide] | –
